Experimental data taken from article PMC9316063, “Chalcones as Anti-Glioblastoma Stem Cell Agent Alone or as Nanoparticle Formulation Using Carbon Dots as Nanocarrier” (Pharmaceutics, 2022).
“And” between values parts separate entries of the source, which are not always exact repeats. Equal values may be shown once. Read-outs that look alike come from different tables or passages of the source.

Assays:
Type in all cases: cell-based, human
Glio3 [1] = assay: MTS cell viability assay, GSC line Glio3; conditions: 72 h, read-out: Glio3 IC50
Description: (§1) The generation and characterization of our GSC lines (Glio3, Glio9, Glio38) have been previously described. In brief, following patient consent, the resected tumors were mechanically and enzymatically dissociated, and red blood cells were removed using Red Cell Lysis buffer (SigmaAldrich, St. Louis, MO, USA). Cells were filtered and plated in a 3:1 ratio of Dulbecco’s Modified Eagle’s medium (DMEM): F12 (Gibco, Carlsbad, CA, USA) media supplemented with 1% penicillin and streptomcycin (penn/strep), 20 ng/mL each of human epidermal growth factor and human fibroblast growth factor, and 2% Gem21 NeuroPlex Serum-Free Supplement (Gemini Bioscience, Sacramento, CA, USA); a formulation consistent for the generation of GBM stem cell lines. Both Glio3 and Glio38 were derived from tumors prior to drug or radiation therapy and grow as neurospheres, whereas Glio9 was derived from a recurrent tumor, following chemo and radiotherapy, and grows adherent. The GBM cell line U87 MG (U87), purchased from ATCC (Manassas, VA, USA) and the pediatric GBM cell line SJ-GBM2 was obtained from Children’s Oncology Group. SJ-GBM2 cell line was derived from a child with glioblastoma post therapy and is used as part of a National Cancer Institute pediatric pre-clinical testing program. Both lines were maintained in RPMI media supplemented with 10% FBS and 1% penn/strep. Mesenchymal stem cells (MSCs) originally derived from human bone marrow aspirates were obtained from Thermo Fisher Scientific and maintained in MEM alpha supplemented with 20% FBS and 1% penn/strep. Prior to drug treatment, MSCs were moved to media with 10% FBS. Upon receipt U87, SJ-GBM2 and MSCs were immediately expanded with several aliquots frozen down for future use. These cell lines are not listed on the most recent NCBI database for misidentification and contamination of human cell lines. All cell lines were routinely tested for mycoplasma using LookOut mycoplasma PCR detection kit (Sigma-Aldrich, St. Louis, MO, USA) according to the manufacturer’s instructions and were maintained at 37 °C in a humidified 5% CO2 incubator.
(§2) The chalcones were dissolved in dimethyl sulfoxide (DMSO) at a concentration of 10 mM, vortexed and subsequently diluted to obtain 1 mM and 0.1 mM stock concentrations. C-dot-trans-chalcones were resuspended in supplement-free media (3:1 ratio DMEM/F12 for GSC experiments or RPMI for non-stem cell line experiments). Cell viability in response to drug treatment was determined using CellTiter 96 AQueous One Solution Cell Proliferation Assay, a colorimetric MTS assay kit (Promega, Madison, WI, USA). The GSCs were seeded into 96-well plates using modified neurosphere media containing 5% FBS at a density of 10,000 cells per well. MSCs and U87 cells were plated at 5000 cells/well while SJ-GBM2 cells were plated at 10,000 cells/well. The next day cells were treated with increasing concentrations of chalcones or C-dot-chalcone conjugate. Next, 72 h later, media was aspirated and 100 μL of a 1:5 solution of MTS to cell culture media was added to each well and incubated for 1–4 h. Optical density was measured at 490 nm using BioTek Synergy HT plate reader. Viability of drug treated cells is expressed as the percent viable cells relative to non-treated cells (100% viability). Experiments were done in triplicate.

Glio9 = assay: MTS cell viability assay, GSC line Glio9; conditions: 72 h, read-out: Glio9 IC50
Description: as §1, §2

Glio38 [2] = assay: MTS cell viability assay, GSC line Glio38; conditions: 72 h, read-out: Glio38 IC50
Description: as §1, §2

[3] = test system: GSC lines Glio3, Glio9 and Glio38; assay: MTS cell viability assay, all three GSC lines together; conditions: for activity against GSCs: at the concentrations tested; for IC50: 72 h
Description: as §1, §2

Glio3 [4] = assay: Sphere forming assay, Glio3; conditions: 100 nM alone, vs non-treated controls
Procedure: (§3) The effect of chalcones’ clonogenic growth potential was determined using sphere-forming assays. Glio3 and Glio38 neurosphere cell lines were dissociated using Accutase (Gemini Bioscience, Sacramento, CA, USA), filtered using 40-micron filter and single cells were seeded at approximately 50 cells per well in a 96-well plate. Cells were treated with 0.1, 0.25 or 0.5 μM of chalcone or 0.01, 0.05 or 0.1 μM of C-dot chalcone conjugate on day 0 and spheres were manually counted under microscopy on day 14. All experiments were done in triplicate. Representative images were obtained using EVOS XL Core light microscope (Thermo Fisher Scientific, Waltham, MA, USA).

Glio38 [5] = assay: Sphere forming assay, Glio38; conditions: 100 nM alone, vs non-treated controls
Procedure: as §3

[6] = test system: mesenchymal stem cells (MSC); assay: MTS cell viability assay, mesenchymal stem cells; conditions: 72 h, estimated, >>10 indicates no cell death observed at any of the concentrations tested
Description: as §1, §2

U87 = assay: MTS cell viability assay, U87; conditions: 72 h
Description: The generation and characterization of our GSC lines (Glio3, Glio9, Glio38) have been previously described. In brief, following patient consent, the resected tumors were mechanically and enzymatically dissociated, and red blood cells were removed using Red Cell Lysis buffer (SigmaAldrich, St. Louis, MO, USA). Cells were filtered and plated in a 3:1 ratio of Dulbecco’s Modified Eagle’s medium (DMEM): F12 (Gibco, Carlsbad, CA, USA) media supplemented with 1% penicillin and streptomcycin (penn/strep), 20 ng/mL each of human epidermal growth factor and human fibroblast growth factor, and 2% Gem21 NeuroPlex Serum-Free Supplement (Gemini Bioscience, Sacramento, CA, USA); a formulation consistent for the generation of GBM stem cell lines. […]
The chalcones were dissolved in dimethyl sulfoxide (DMSO) at a concentration of 10 mM, vortexed and subsequently diluted to obtain 1 mM and 0.1 mM stock concentrations. […] Cell viability in response to drug treatment was determined using CellTiter 96 AQueous One Solution Cell Proliferation Assay, a colorimetric MTS assay kit (Promega, Madison, WI, USA). […] Optical density was measured at 490 nm using BioTek Synergy HT plate reader. Viability of drug treated cells is expressed as the percent viable cells relative to non-treated cells (100% viability). […]

[7] = Homo sapiens, Mesenchymal stem cells
[8] = Homo sapiens, in all three GSC lines, read-out: IC50 in all GSC lines (bound stated in text)
[9] = average of Glio3, Glio9, Glio38, read-out: average IC50 across the 3 GSC lines
[10] = Homo sapiens, average of Glio3, Glio9, Glio38, read-out: average IC50 across the 3 GSC lines

Row | Molecule | IC50 (Glio3 [1]; Homo sapiens, MTS, ±SEM) | IC50 (Glio9; Homo sapiens, MTS, ±SEM) | IC50 (Glio38 [2]; Homo sapiens, MTS, ±SEM) | activity against GSCs [3] | IC50 [6, 7] | IC50 [3, 8] | also measured
1 | COc1cc(/C=C/C(=O)c2ccc(N)cc2)ccc1O [Chalcone 3l] | > 10 µM | > 10 µM | > 10 µM | – | – | – | –
2 | Nc1ccc(C(=O)/C=C/c2ccoc2)cc1 [Chalcone 3s] | > 10 µM | > 10 µM | > 10 µM | – | – | – | –
3 | COc1cc(/C=C/C(=O)c2ccc(N)cc2)cc(OC)c1O [Chalcone 3k] | > 10 µM | > 10 µM | > 10 µM | not active at concentrations tested | – | – | activity against GSCs ([3]; listed as 4k): eliminates activity
4 | Nc1ccc(C(=O)/C=C/c2ccco2)cc1 [Chalcone 3r] | > 10 µM | > 10 µM | > 10 µM | – | – | – | –
5 | COc1cc(/C=C/C(=O)c2ccc(OCC(=O)O)cc2)cc(OC)c1OC [Chalcone 4f] | > 10 µM | > 10 µM | > 10 µM | active | – | – | –
6 | transferrin: transferrin alone, targeting ligand used in the conjugates | – | – | – | – | – | – | neurosphere formation (Glio3 [4]): neither c-dots or transferrin alone significantly reduced neurosphere formation; neurosphere formation (Glio38 [5]): neither c-dots or transferrin alone significantly reduced neurosphere formation
7 | COc1cccc(/C=C/C(=O)c2ccc(O)cc2)c1OC [Chalcone 4a] | 11.4 ± 0.9 µM | 14.2 ± 3 µM | 9.1 ± 0.7 µM | – | > 10 µM | – | –
8 | COc1ccc(OC)c(/C=C/C(=O)c2ccc(N)cc2)c1 [Chalcone 3c] | 12 ± 1.8 µM | 9.3 ± 0.6 µM | 10.4 ± 2 µM | – | > 10 µM | < 15 µM | –
9 | 3,5-dimethoxy chalcone [Chalcone 3f] | – | – | – | – | – | – | IC50 (Glio3 [1]; MTS, ±SEM): 7.8 ± 0.9 µM; IC50 (Glio9; MTS, ±SEM): 9.7 ± 2 µM; IC50 (Glio38 [2]; MTS, ±SEM): 6.5 ± 0.9 µM; IC50 [6]: 74.8 µM; IC50 [3, 9]: 8.2 ± 0.8 µM; IC50 (U87): 8.5 ± 0.04 µM
10 | COC(=O)COc1ccc(C(=O)/C=C/c2cc(OC)c(OC)c(OC)c2)cc1 [Chalcone 4e] | 10.4 ± 1.4 µM | 7 ± 1.3 µM | 18.4 µM | active | – | – | –
11 | Nc1ccc(C(=O)/C=C/c2ccc(O)cc2)cc1 [Chalcone 3i] | – | – | – | not active at concentrations tested | – | – | IC50 (Glio3 [1]; Homo sapiens): > 10 µM; IC50 (Glio9; Homo sapiens): > 10 µM; IC50 (Glio38 [2]; Homo sapiens): > 10 µM
12 | Nc1ccc(C(=O)/C=C/c2cccc(Br)c2)cc1 [Chalcone 3x] | 9.3 ± 1.1 µM | 7 ± 0.5 µM | 5.9 ± 0.8 µM | – | 28.1 µM | < 10 µM | IC50 [3, 10]: 7.4 µM
13 | CCOc1cc(C=CC(=O)c2ccc(N)cc2)ccc1O [Chalcone 3j] | > 10 µM | > 10 µM | > 10 µM | not active at concentrations tested | – | – | –
14 | COCOc1ccc(C=CC(=O)c2ccc(N)cc2)cc1OC [Chalcone 3h] | > 10 µM | > 10 µM | > 10 µM | not active at concentrations tested | – | – | –
15 | COc1cc(/C=C/C(=O)c2ccc(NC(C)=O)cc2)cc(OC)c1 [Chalcone 3g] | 6.2 ± 1.3 µM | 4.8 ± 0.6 µM | 5.4 ± 0.6 µM | active | 7.4 µM | < 10 µM | –
16 | Nc1ccc(C(=O)/C=C/c2ccccn2)cc1 [Chalcone 3q] | – | – | – | – | – | – | IC50 (Glio3 [1]; MTS, ±SEM): 8.3 ± 0.7 µM; IC50 (Glio9; MTS, ±SEM): 6.6 ± 0.5 µM; IC50 (Glio38 [2]; MTS, ±SEM): 6.6 ± 0.7 µM; IC50 [6]: > 10 µM; IC50 [3, 9]: 7.2 ± 0.5 µM
17 | COc1cc(/C=C/C(=O)c2cccc(N)c2)cc(OC)c1OC [Chalcone 5a, 3′-Amino-3,4,5-trimethoxychalcone] | 8 ± 1.5 µM | 5.1 ± 0.6 µM | 5 ± 0.8 µM | – | 5.5 µM | – | –
18 | 3,4,5-trimethoxy chalcone [Chalcone 3e] | – | – | – | – | – | – | IC50 (Glio3 [1]; MTS, ±SEM): 10.9 ± 0.8 µM; IC50 (Glio9; MTS, ±SEM): 8.9 ± 1.6 µM; IC50 (Glio38 [2]; MTS, ±SEM): 9.2 ± 0.8 µM; IC50 [6]: 46.7 µM; IC50 ([6]; listed as 4′-amino-trimethoxy chalcone): ~50 µM; IC50 [3, 9]: < 10 µM and 9.7 µM; IC50 ([3]; in all three GSC lines, read-out: IC50 in all GSC lines (bound stated in text)): < 15 µM
19 | COc1ccc(OC)c(/C=C/C(=O)c2ccc(NC(C)=O)cc2)c1 [Chalcone 3d] | 6.9 ± 1.6 µM | 5.5 ± 1.1 µM | 7.9 ± 1.7 µM | active | 16.8 µM | < 10 µM | –
20 | Nc1ccc(C(=O)/C=C/c2cccc(F)c2)cc1 [Chalcone 3u] | 9.9 ± 0.3 µM | 7.2 ± 0.6 µM | 8.8 ± 1.4 µM | – | 15.6 µM | < 10 µM | IC50 [3, 10]: 8.6 µM
21 | Nc1ccc(C(=O)C=Cc2ccc(N3CCOCC3)cc2)cc1 [Chalcone 3m] | > 10 µM | > 10 µM | > 10 µM | neither the morpholino or the methoxymethoxy derivatives were active against GSCs | – | – | –
22 | COc1cc(/C=C/C(=O)c2ccc(OC(C)=O)cc2)cc(OC)c1OC [Chalcone 4d] | 7.7 ± 0.4 µM | 6.2 ± 0.9 µM | 6.9 ± 0.3 µM | – | > 10 µM | < 10 µM | –
23 | Nc1ccc(C(=O)/C=C/c2ccccn2)cc1 [Chalcone 3p] | 6.6 ± 1.2 µM | 5.2 ± 0.5 µM | 6.4 ± 2 µM | – | 8 µM | < 10 µM | IC50 [3, 10]: 6.1 ± 0.4 µM
24 | Nc1ccc(C(=O)/C=C/c2cccc(Cl)c2)cc1 [Chalcone 3v] | 9.1 ± 0.6 µM | 5.8 ± 0.9 µM | 6.7 ± 0.6 µM | – | 25.7 µM | < 10 µM | IC50 [3, 10]: 7.2 µM
25 | Nc1ccc(C(=O)/C=C/c2c[nH]c3ccccc23)cc1 [Chalcone 3t] | > 10 µM | > 10 µM | > 10 µM | – | – | – | –
26 | COc1cc(/C=C/C(=O)c2ccc(O)cc2)cc(OC)c1 [Chalcone 4b] | 6.7 ± 0.2 µM | 7 ± 0.4 µM | 6.4 ± 0.4 µM | – | 17.1 µM | < 10 µM | –
27 | CN(C)c1ccc(/C=C/C(=O)c2ccc(N)cc2)cc1 [Chalcone 3n] | > 10 µM | > 10 µM | > 10 µM | inactive at the concentrations tested | – | – | –
28 | COc1ccc(/C=C/C(=O)c2ccc(N)cc2)cc1OC [Chalcone 3b] | > 10 µM | > 10 µM | > 10 µM | – | – | – | –
29 | Nc1ccc(C(=O)/C=C/c2ccc(Cl)cc2)cc1 [Chalcone 3w] | 12.3 ± 1.1 µM | 7 ± 0.3 µM | 7.9 ± 0.6 µM | – | 80.1 µM | < 15 µM | IC50 [3, 10]: 9.1 µM
